Assay [1] concerns E. coli BW25113. Nature of the assay: Bacterial cell morphology by scanning electron microscopy. The format is cell-based. The note with it: E. coli BW25113, 32 and 80 μg/ml, MOPS minimal medium, 1 h at 37°C. The procedure:
After treatment, the cells were centrifuged at 5,000×g for 5 min, then resuspended in a fixative solution (4% glutaraldehyde in PBS, pH 7.4) at 0.1× the original volume. The cells were fixed at room temperature for 1 h and stored overnight at 4 °C. The following day, 50 μl of the fixed cells were transferred onto coverslips coated with poly-L-lysine, dehydrated through a series of ethanol treatments, and dried using a critical point dryer. The samples were then examined with a scanning electron microscope (TESCAN VEGA-II LSU) equipped with an X-MAX 80mm^2 EDS detector, and images were captured using INCA software.

The subject of assay [2] is bacterial ribosome. The assay is described as follows: Toeprinting analysis of MKM-induced ribosome stalling. The format is biochemical, E. coli. The procedure: Toeprinting analysis was carried out in the E. coli in vitro transcription-translation system assembled from the purified components (PURExpress, NEB). Toeprinting was carried out using either ^32P-radiolabeled or fluorescently labeled reverse transcription primers, following the procedures described previously[21],[26],[27].
Reactions either contained no antibiotic or were supplemented with 50 μM retapamulin or varying concentrations of MKM. The inhibitors of aminoacyl-tRNA synthetases (mupirocin, Gly-AMS (MedChemExpress: Cat. No.: HY-108940), or Arg-AMS (MedChemExpress, Cat. No.: HY-112862)) were added to the final concentrations of 50 μM to stall translation at downstream “catch codons” (Ile, Gly, or Arg, respectively). The gltX template was prepared by amplifying the gltX gene from E. coli BW25113 genomic DNA using the primers T7_gltX_F and gltX_NV1_R (Supplementary Table 6). The yrbA_wt template and its derivatives containing 3-Ser or 3-Thr codons were generated by four-primer PCRs using the primers T7_IR_AUG_F, yrbA_wt_F / yrbA_TTT_F / yrbA_SSS_F, yrbA_wt_R/yrbA_Ile_catch_R, and posT-NV1_R (Supplementary Table 6).
Fluorescently labeled reactions were carried out on the ermBL toeprint mRNA template. The template was generated by PCR of two overlapping 77-nt- and 78-nt-long primers T7_ermBL_F and ermBL_UGA_R (Supplementary Table 6). Reactions were assembled in a 6 μl volume with 30 ng of the ermBL mRNA template and incubated for 15 min at 37 °C. Reverse transcription was carried out using AMV RT and primer NV*1-Alexa 647 (Supplementary Table 6) for 20 min at 37 °C. Reactions were terminated with 1 μl of 5 M NaOH, neutralized with 0.7 μl of 25% HCl, and nucleotide removal was performed with the QIAquick Nucleotide Removal Kit (Qiagen). The samples were dried under vacuum for 2 hours at 60 °C for subsequent gel electrophoresis. The 6% acrylamide gels were scanned on a Typhoon scanner (GE Healthcare). The sequences of all toeprinting templates used in the study can be found in Supplementary Table 7.

Assay [3] relates to E. coli. The assay is described as follows: Antimicrobial activity, E. coli. Format: cell-based, Escherichia coli.
Assay [4] deals with mycobacteria. The assay is described as follows: Antimicrobial activity, mycobacteria. The format is cell-based. Particulars: Middlebrook 7H9 + 10% OADC + 0.05% Tween-80.
Assay [5] has as its system K. pneumoniae C1559. The assay is described as follows: Ex vivo efficacy in human blood. The format is cell-based, Klebsiella pneumoniae. Particulars: K. pneumoniae C1559, 10^5 cfu/ml, 5×MIC of MKM, six hours, 37°C; three biological experiments. As to the method: Human blood was procured from BioIVT (New York, USA). […] CFUs were determined by serial dilution and cultivation on agar.

The test system of assay [6] is E. coli BW25113.
Assay [7] relates to E. coli strain SQ110ΔtolC::pZsbmA. Particulars: agar with 4×MIC of MKM (32 μg/ml).
Assay [8] has as its system multi-drug-resistant Enterobacteriaceae.
In assay [9] the test system is E. coli BW25113 ΔtolCΔbamB expressing ManE. The assay is described as follows: MIC in ManE-expressing E. coli. Particulars: manE on pGDP3.
The mark [10] stands for this setting: highly resistant mutants of E. coli BW25113 selected by passaging.

This is an account of results in article PMC12236907, “A Natural Depsipeptide Antibiotic that Targets the E site of the Bacterial Ribosome” (Research Square, 2025).

Entries after “also recorded” stand apart in the source; their conditions may differ. Where a SMILES comes first, the peptide text is derived from it. Bridges are numbered along the chain shown (N, C = ends). [ ]: non-standard residue; d: D form. dOrn = NCCC[C@@H](N)C(=O)O

One may read the MIC as the smallest concentration in the dilution series that meets the test's criterion for growth inhibition. High values mean a need for much substance, low ones inhibition by little substance. `C[C@@H](O)[C@@H]1NC(=O)[C@@H](CCCNC(=N)N)NC(=O)[C@@H](CCCNC(=N)N)NC(=O)[C@@H](CC(N)=O)NC(=O)[C@@H](NC(=O)[C@@H](Cc2ccccc2)NC(=O)[C@@H](CCCN)NC(=O)[C@H](N)CCCNC(=N)N)[C@@H](C)OC(=O)[C@H](Cc2c[nH]cn2)NC1=O` [MKM, manikomycin A] (H-[dR][dOrn][dF]T[dN][dR][dR]TH; ester 4-C): the bacterial cell morphology entry in assay [1] is listed as “no detectable changes in bacterial cell morphology”. Further, the “ribosome stalling, ermBL mRNA” value in assay [2] (E. coli in vitro protein synthesis system, ermBL template) is on record as “ribosomes stall primarily on the third codon; also recorded: stalled the ribosome on the third codon”. Moreover, the “ribosome stalling, gltX template” value in assay [2] (gltX template, Gly-AMS in all reactions) is recorded as “arrested some ribosomes at the start codon, a notable fraction of them became arrested at several specific sites along the mRNA”. Moreover, the “ribosome stalling, yrbA-SSS template” value in assay [2] (yrbA with three Ser codons after start codon, high concentrations of MKM) was “no ribosomes pass downstream of the start codon”. For the same compound, the “ribosome stalling, yrbA-TTT template” value in [2] (yrbA with three Thr codons after start codon) is reported as “a fraction of ribosomes was able to move through the Thr codons”. Further, in assay [3], the antimicrobial activity result was “selective antimicrobial activity”. Besides, in [4], the growth inhibition result is “readily inhibits the growth”. Also, in assay [5], the “bacterial eradication in human blood” value is reported as “complete eradication”. Moreover, the “increase in MIC” value in assay [6] (deletion of genes encoding components of the transporter YejABEF) is recorded as 2–8 fold. In assay [6] (setting [10]), the MIC lay within 512 to 1024 µg/mL and the “increase in MIC over parental strain” value was 16- to 32 fold. In addition, in assay [7], the “frequency of resistant colonies” value was ~ 10^−7. In addition, in assay [8], the “killing of multi-drug-resistant Enterobacteriaceae” value is listed as “can kill”. Further, the “increase in MIC on ManE expression” value in assay [9] was > 32 fold.
